Measurements reported in US9896436B2, “Histone demethylase inhibitors” (Celgene Quanticel Research, Inc., priority 2014, dated 2018).

What was measured:
Format in all cases: biochemical
Conditions in all cases: Table 5
JMJD2C = JMJD2C (Homo sapiens (Human), UniProt Q9H3R0); test: JMJD2C in vitro enzyme inhibition assay (TR-FRET)
From the text: (§1) This assay determines the ability of a test compound to inhibit Jarid1B, JMJD2C and JMJD3 demethylase activity. Baculovirus expressed Jarid1B (GenBank Accession #NM-006618, AA 2-751) was purchased from BPS Bioscience (Cat #50121) or custom made by MolecularThroughput. Baculovirus expressed JMJD2C (GenBank Accession #BC143571, AA 2-372) was purchased from BPS Bioscience (Cat#50105). Baculovirus expressed JMJD3 (GenBank Accession #NM-001080424, AA1043-end) was purchased from BPS Bioscience (Cat#50115).
The ability of test compounds to inhibit the activity of JMJD2C was determined in 384-well plate format under the following reaction conditions: 0.3 nM JMJD2C, 300 nM H3K9me3-biotin labeled peptide (Anaspec cat #64360), 2 μM alpha-ketoglutaric acid in assay buffer of 50 mM HEPES, pH7.3, 0.005% Brij35, 0.5 mM TCEP, 0.2 mg/ml BSA, 50 μM sodium L-ascorbate, and 2 μM ammonium iron(II) sulfate. Reaction product was determined quantitatively by TR-FRET after the addition of detection reagent Phycolink Streptavidin-allophycocyanin (Prozyme) and Europium-anti-di-methylated histone H3 lysine 9 (H3K9me2) antibody (PerkinElmer) in the presence of 5 mM EDTA in LANCE detection buffer (PerkinElmer) at a final concentration of 50 nM and 1 nM, respectively. […]

Jarid1B = Jarid1B (Homo sapiens (Human), UniProt Q9UGL1); test: Jarid1B in vitro enzyme inhibition assay (TR-FRET)
From the text: as §1
The ability of test compounds to inhibit the activity of Jarid1B was determined in 384-well plate format under the following reaction conditions: 0.8 nM Jarid1B, 300 nM H3K4me3-biotin labeled peptide (Anaspec cat #64357), 2 μM alpha-ketoglutaric acid in assay buffer of 50 mM HEPES, pH7.3, 0.005% Brij35, 0.5 mM TCEP, 0.2 mg/ml BSA, 50 μM sodium L-ascorbate, and 2 μM ammonium iron(II) sulfate. Reaction product was determined quantitatively by TR-FRET after the addition of detection reagent Phycolink Streptavidin-allophycocyanin (Prozyme) and Europium-anti-mono- or di-methylated histone H3 lysine 4 (H3K4me1-2) antibody (PerkinElmer) in the presence of 5 mM EDTA in LANCE detection buffer (PerkinElmer) at a final concentration of 25 nM and 1 nM, respectively. […]

JMJD3 = JMJD3 (Homo sapiens, UniProt O15054); test: JMJD3 in vitro enzyme inhibition assay (AlphaScreen)
From the text: as §1
The ability of test compounds to inhibit the activity of JMJD3 was determined in 384-well plate format under the following reaction conditions: 1 nM JMJD3, 250 nM H3K27me3-biotin labeled peptide (Anaspec cat #64367), 1 μM alpha-ketoglutaric acid in assay buffer of 50 mM HEPES, pH7.3, 0.005% Brij35, 0.5 mM TCEP, 0.2 mg/ml BSA, 50 μM sodium L-ascorbate, 5 μM ammonium iron(II) sulfate. Reaction product is determined quantitatively by AlphaScreen detection after the addition of detection reagents anti-H3K27me1 antibody, 5 μg/ml AlphaScreen® Streptavidin-coated Donor beads, and 5 μg/ml AlphaScreen® Protein A Acceptor beads in 50 mM HEPES, pH7.3, 10 mM NaCl, 0.005% Brij35, 10 mM EDTA, 2 mg/ml BSA. […]

Chain of JMJD2C (Q9H3R0 2-372): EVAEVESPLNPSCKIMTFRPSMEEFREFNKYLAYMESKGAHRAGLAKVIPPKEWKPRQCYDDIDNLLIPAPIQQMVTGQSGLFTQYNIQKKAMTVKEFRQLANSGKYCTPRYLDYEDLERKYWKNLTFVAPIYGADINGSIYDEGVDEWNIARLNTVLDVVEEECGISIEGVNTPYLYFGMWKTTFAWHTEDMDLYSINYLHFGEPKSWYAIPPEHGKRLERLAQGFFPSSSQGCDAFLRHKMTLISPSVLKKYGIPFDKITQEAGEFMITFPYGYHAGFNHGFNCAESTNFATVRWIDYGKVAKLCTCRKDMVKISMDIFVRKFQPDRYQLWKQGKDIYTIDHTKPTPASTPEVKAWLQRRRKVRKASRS
Chain of Jarid1B (Q9UGL1 2-751): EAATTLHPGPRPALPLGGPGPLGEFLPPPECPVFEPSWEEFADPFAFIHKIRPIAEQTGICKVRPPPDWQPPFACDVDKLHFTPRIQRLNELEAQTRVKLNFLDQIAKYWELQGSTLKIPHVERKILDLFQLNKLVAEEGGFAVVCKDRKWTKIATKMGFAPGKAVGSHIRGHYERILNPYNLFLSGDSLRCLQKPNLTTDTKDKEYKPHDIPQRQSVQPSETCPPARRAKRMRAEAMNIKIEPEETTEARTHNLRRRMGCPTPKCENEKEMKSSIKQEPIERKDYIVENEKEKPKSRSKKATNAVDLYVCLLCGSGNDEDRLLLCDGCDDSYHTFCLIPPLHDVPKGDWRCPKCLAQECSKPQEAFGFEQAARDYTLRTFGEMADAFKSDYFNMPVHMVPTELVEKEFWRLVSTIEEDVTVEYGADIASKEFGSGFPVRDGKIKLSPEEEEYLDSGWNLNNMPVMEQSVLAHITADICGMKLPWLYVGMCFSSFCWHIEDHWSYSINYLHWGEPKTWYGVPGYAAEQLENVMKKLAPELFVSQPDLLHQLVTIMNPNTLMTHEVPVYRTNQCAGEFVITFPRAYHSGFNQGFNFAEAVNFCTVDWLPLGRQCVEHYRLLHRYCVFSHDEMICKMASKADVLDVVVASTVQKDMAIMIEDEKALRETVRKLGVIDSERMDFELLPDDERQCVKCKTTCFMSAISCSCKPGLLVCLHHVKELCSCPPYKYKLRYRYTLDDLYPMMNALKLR

Substance: 2-{1-[(6-fluoro-1,2,3,4- tetrahydronaphthalen-1-yl)methyl]-1H- imidazol-4-yl}-4-[5-(trifluoromethyl)-1H 1,2,3-triazol-4-yl]pyridine [Example 100]
- IC50 (JMJD2C): > 10 µM
- IC50 (Jarid1B): ≤ 100 nM
- IC50 (JMJD3): > 10 µM
